Where two headings read alike, the source gives them in different places.
Assays:
histone acetylase p300 = molecular target: T1, histone acetylase p300 (Homo sapiens, UniProt Q09472); assay: Inhibitory activity on histone acetylase p300 (radioisotope FlashPlate); type: biochemical; settings: enzyme 0.2 nM, peptide substrate 600 nM, [3H]-Ac-CoA 250 nM; read-out: IC50 against P300
T1 construct: purchased BPS
Source text: Using the radioisotope FlashPlate technology, the half inhibitory concentration (IC50) of the compound according to the present invention was detected against histone acetylase p300 (purchased from BPS). […] Under the catalysis of histone acetylase p300, [3H]—Ac group in the isotope-labeled [3H]-Ac-CoA was transferred to the biotinylated histone polypeptide substrate (purchased from GL Biochem Ltd.), and then the biotinylated histone peptide substrate bound to the streptavidin on the FlashPlate board, so that the isotope was close enough to the FlashPlate board. Thus, the radiation energy of isotope could convert the scintillation fluid coated on the FlashPlate board into photons, that was able to be detected. Detailed procedures were as follows:
• 1× reaction buffer: 50 mM Tris-HCl, pH 7.5; 0.01% Tween-20 • Reaction stop solution: 750 μM Ac-CoA solution
Each test compound was dissolved into 10 mM with 100% DMSO, and then each compound was diluted to the desired concentration in Echo 384-well plate. […] 200 nl of 100% DMSO was transferred into the well as the negative control.
p300 was added to 1× reaction buffer to form a 2× enzyme solution (the final concentration of enzyme being 0.2 nM).
The peptide substrate and [3H]-Ac-CoA were added to the 1-fold reaction buffer, to form a 2-fold substrate solution (the final concentration of the substrate being 600 nM and 250 nM, respectively).
10 μl of 2-fold enzyme solution was added to the wells of 384-well reaction plate. […] The plate was centrifuged at 1000 rpm for 1 min and incubated at room temperature for 15 min.
10 μl of 2-fold substrate solution was added to each well of 384-well reaction plate. The plate was centrifuged at 1000 rpm for 1 min, and then reacted at 25° C. for 60 min.
10 μl of reaction stop solution was added to each well of 384-well reaction plate to stop the reaction. 25 μL solution was collected from each well of the test plate and transferred to Flashplate, that was placed at room temperature for 1 h. Then, Flashplate plate was washed three times with 0.1% Tween-20 solution.
4) Reading Data with MicroBeta 2
The data were copied from Microbeta 2. […] The maximum value is the conversion rate of the control DMSO, and the minimum value is the conversion rate of the control without enzyme activity.
The data were imported into Graph Pad Prism5, and the formula “log(inhibitor) vs. response−Variable slope” was used to perform curve fitting, to obtain the half inhibitory concentration (IC50).

CWR22RV1 cells = assay: Inhibition of proliferation of CWR22RV1 cells (CCK-8); type: cell-based, human; settings: 6 days culture
In short: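 Proliferation read-out was CCK-8 absorbance at 450 nm after 2.5 h, following 6-day culture with compound. Each well held 1500 CWR22RV1 cells; the 3-fold, 9-point series started at a final 10 μM in 0.1% DMSO. Dose-response-inhibition fit gave the IC50.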

[1] = Homo sapiens, CWR22Rv1, 144 h, read-out: IC50 against CWR22RV1 cells
[2] = Homo sapiens, CWR22Rv1, 144 h, read-out: IC50 against CWR22RV1 cells (text)
[3] = read-out: IC50 against CWR22RV1 cells

T1 sequence (Q09472 whole entry): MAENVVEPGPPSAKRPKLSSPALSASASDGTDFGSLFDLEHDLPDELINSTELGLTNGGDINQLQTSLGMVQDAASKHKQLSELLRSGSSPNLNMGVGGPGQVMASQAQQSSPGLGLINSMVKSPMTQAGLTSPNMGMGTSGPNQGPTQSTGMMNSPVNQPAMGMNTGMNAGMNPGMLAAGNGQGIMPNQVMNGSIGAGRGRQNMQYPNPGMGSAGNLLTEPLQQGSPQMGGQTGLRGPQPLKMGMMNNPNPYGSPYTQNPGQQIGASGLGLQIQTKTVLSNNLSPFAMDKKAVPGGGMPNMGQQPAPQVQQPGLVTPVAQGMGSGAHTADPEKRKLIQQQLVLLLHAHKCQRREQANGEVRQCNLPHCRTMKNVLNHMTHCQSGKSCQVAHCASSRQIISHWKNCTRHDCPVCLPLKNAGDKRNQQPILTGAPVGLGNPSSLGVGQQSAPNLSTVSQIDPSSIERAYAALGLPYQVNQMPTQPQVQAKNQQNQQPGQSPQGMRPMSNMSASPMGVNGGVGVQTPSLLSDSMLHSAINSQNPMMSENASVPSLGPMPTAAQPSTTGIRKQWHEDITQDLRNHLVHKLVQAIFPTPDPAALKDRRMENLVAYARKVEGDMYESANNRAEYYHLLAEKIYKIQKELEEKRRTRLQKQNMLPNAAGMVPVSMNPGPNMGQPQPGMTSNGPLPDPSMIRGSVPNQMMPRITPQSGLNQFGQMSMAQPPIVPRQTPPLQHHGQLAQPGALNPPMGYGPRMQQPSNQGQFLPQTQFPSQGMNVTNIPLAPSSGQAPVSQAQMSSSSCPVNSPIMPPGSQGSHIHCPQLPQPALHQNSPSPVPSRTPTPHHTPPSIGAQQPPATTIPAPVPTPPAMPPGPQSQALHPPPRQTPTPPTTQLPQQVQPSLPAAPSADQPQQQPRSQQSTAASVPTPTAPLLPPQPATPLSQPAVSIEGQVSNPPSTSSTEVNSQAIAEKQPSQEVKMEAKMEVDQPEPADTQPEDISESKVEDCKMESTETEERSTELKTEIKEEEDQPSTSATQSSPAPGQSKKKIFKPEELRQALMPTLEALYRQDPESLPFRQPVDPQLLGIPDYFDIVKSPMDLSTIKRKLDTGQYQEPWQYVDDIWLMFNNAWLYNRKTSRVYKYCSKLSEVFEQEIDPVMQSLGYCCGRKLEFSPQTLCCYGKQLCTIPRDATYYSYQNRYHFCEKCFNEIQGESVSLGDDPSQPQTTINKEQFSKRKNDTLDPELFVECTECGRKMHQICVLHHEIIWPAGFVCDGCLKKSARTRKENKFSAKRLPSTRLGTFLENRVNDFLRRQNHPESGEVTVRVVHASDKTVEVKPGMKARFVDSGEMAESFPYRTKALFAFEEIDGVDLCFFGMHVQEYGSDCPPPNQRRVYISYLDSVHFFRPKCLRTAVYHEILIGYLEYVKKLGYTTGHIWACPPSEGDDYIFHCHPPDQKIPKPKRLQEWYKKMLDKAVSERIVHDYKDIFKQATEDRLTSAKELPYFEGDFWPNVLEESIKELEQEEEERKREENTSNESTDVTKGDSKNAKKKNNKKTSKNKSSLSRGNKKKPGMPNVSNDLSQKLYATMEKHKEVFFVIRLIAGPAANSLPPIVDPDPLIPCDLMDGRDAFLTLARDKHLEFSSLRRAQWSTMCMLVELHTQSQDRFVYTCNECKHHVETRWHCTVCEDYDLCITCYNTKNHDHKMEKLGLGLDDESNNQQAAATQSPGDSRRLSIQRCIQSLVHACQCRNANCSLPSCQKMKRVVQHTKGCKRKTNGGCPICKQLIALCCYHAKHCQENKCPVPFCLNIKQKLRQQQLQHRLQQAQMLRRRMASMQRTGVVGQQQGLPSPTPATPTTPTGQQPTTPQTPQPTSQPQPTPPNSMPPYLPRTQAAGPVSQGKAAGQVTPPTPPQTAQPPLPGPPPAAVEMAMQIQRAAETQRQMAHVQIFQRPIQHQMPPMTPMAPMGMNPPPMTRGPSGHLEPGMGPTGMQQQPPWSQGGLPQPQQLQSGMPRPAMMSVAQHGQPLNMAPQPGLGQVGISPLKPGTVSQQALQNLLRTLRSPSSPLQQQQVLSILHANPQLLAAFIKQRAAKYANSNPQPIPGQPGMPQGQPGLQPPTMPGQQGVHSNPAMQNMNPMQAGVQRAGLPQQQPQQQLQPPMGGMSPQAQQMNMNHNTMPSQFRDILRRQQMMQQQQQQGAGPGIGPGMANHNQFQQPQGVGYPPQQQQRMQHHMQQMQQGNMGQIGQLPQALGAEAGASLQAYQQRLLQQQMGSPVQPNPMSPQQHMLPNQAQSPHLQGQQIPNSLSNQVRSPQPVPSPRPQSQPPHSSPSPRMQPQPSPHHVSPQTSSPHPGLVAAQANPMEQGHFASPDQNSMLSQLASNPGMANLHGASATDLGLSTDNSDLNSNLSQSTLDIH

CNC(=O)Nc1ccc2c(c1)CC[C@@]21OC(=O)N(CC(=O)N2C(C)CCC2C2CCCCC2)C1=O (stereo partly drawn) [Example 96, 1-((1R)-3′-(2-(2-cyclohexyl-5-methylpyrrolidin-1-yl)-2-oxoethyl)-2′,4′-dioxo-2,3-dihydrospiro[indene-1,5′-oxazolidine]-5-yl)-3-methylurea]
IC50 (histone acetylase p300): 7.5 nM
IC50 (CWR22RV1 cells; [1]): ≤ 500 nM

CNC(=O)Nc1ccc2c(c1)CC[C@@]21OC(=O)N(CC(=O)N2[C@@H](C)CC[C@H]2C2CCC(F)(F)CC2)C1=O [Example 209, 1-((R)-3′-(2-((2S,5S)-2-(4,4-difluorocyclohexyl)-5-methylpyrrolidin-1-yl)-2-oxoethyl)-2′,4′-dioxo-2,3-dihydrospiro[indene-1,5′-oxazolidine]-5-yl)-3-methylurea]
IC50 (histone acetylase p300): 11 nM
IC50 (CWR22RV1 cells; [1]): ≤ 500 nM
IC50 (CWR22RV1 cells; [2]): ≤ 500 nM

C[C@H]1CC[C@@H](c2ccc(F)cc2)N1C(=O)CN1C(=O)O[C@@]2(CCc3cc(NC(=O)NC4CC4)ccc32)C1=O [Example 371, 1-((R)-3′-(2-((2S,5S)-2-(4-fluorophenyl)-5-methylpyrrolidin-1-yl)-2-oxoethyl)-2′,4′dioxo-2,3-dihydrospiro[indene-1,5-oxazolidine]-5-yl)-3-cyclopropylurea]
IC50 (histone acetylase p300): 3.1 nM
IC50 (CWR22RV1 cells; [1]): 500 to 2000 nM

CNC(=O)Nc1ccc2c(c1)C1(CC1)CC21OC(=O)N(CC(=O)N(Cc2ccc(F)cc2)[C@@H](C)C(F)(F)F)C1=O (stereo partly drawn) [Example 98, 2-(5-(3-methylureido)-2′,4′-dioxo-2,3-dihydrospiro[cyclopropane-indene-1,5′-oxazole]-3′-yl)-N-(4-fluorobenzyl)-N—((S)-1,1,1-trifluoropropan-2-yl)acetamide]
IC50 (histone acetylase p300): 26 nM
IC50 (CWR22RV1 cells; [1]): 500 to 2000 nM

CC(=O)Nc1ccc2c(c1)CC[C@@]21OC(=O)N(CC(=O)N2[C@@H](C)CC[C@H]2c2ccc(F)cc2)C1=O [Example 114, N—((R)-3′-(2-((2S,5S)-2-(4-fluorophenyl)-5-methylpyrrolidin-1-yl)-2-oxoethyl)-2′,4′-dioxo-2,3-dihydrospiro[indene-1,5′-oxazolidine]-5-yl)acetamide]
IC50 (histone acetylase p300): 26 nM
IC50 (CWR22RV1 cells; [1]): 500 to 2000 nM

CNC(=O)Nc1ccc2c(c1)CC[C@@]21OC(=O)N(CC(=O)N2C(C)CCC2c2ccc(OC)cc2)C1=O (stereo partly drawn) [Example 350, 1-((1R)-3′-(2-(2-(4-methoxyphenyl)-5-methylpyrrolidin-1-yl)-2-oxoethyl)-2′,4′-dioxo-2,3-dihydrospiro[indene-1,5′-oxazolidine]-5-yl)-3-methylurea]
IC50 (histone acetylase p300): 33 nM
IC50 (CWR22RV1 cells; [1]): 500 to 2000 nM

CNC(=O)Nc1ccc2c(c1)CC[C@@]21OC(=O)N(CC(=O)N2[C@@H](COC)CC[C@H]2c2ccc(F)cc2)C1=O [Example 362, 1-(3′-(2-((2S,5R)-2-(4-fluorophenyl)-5-(methoxymethyl)pyrrolidin-1-yl)-2-oxoethyl)-2′,4′-dioxo-2,3-dihydrospiro[indene-1,5′-oxazolidine]-5-yl)-3-methylurea]
IC50 (histone acetylase p300): 15 nM
IC50 (CWR22RV1 cells; [1]): ≤ 500 nM
IC50 (CWR22RV1 cells; [2]): ≤ 500 nM

CNC(=O)Nc1ccc2c(c1)CC[C@@]21OC(=O)N(CC(=O)N2[C@@H](C(C)C)CC[C@H]2c2ccc(F)cc2)C1=O [Compound 48]
IC50 (histone acetylase p300): 4.5 nM

CNC(=O)Nc1ccc2c(c1)CC[C@@]21OC(=O)N(CC(=O)N2CCCCC2c2ccccc2)C1=O (stereo partly drawn) [Example 322, 1-((1R)-2′,4′-dioxo-3′-(2-oxo-2-(2-phenylpiperidin-1-yl)ethyl)-2,3-dihydrospiro[indene-1,5′-oxazolidine]-5-yl)-3-methylurea]
IC50 (CWR22RV1 cells; [1]): > 2000 nM

CNC(=O)Nc1ccc2c(c1)CCC21OC(=O)N(CC(=O)N2CC3CCC2C3)C1=O (centres unmarked) [Example 16, 1-(3′-(2-(2-azabicyclo[2.2.1]heptan-2-yl)-2-oxoethyl)-2′,4′-dioxo-2,3-dihydrospiro[indene-1,5′-oxazolidine]-5-yl)-3-methylurea]
IC50 (CWR22RV1 cells; [1]): > 2000 nM

CNC(=O)Nc1ccc2c(c1)CC[C@@]21OC(=O)N(CC(=O)N2CCCc3cc(-c4ccn(C)n4)c(C(F)(F)F)cc32)C1=O [Example 109, (R)-1-methyl-3-(3′-(2-(6-(1-methyl-1H-pyrazol-3-yl)-7-(trifluoromethyl)-3,4-dihydroquinolin-1-(2H)-yl)-2-oxoethyl)-2′,4′-dioxo-2,3-dihydrospiro[indene-1,5′-oxazolidine]-5-yl)urea]
IC50 (CWR22RV1 cells; [1]): > 2000 nM

CCc1cc(F)ccc1C1CCC(C)N1C(=O)CN1C(=O)O[C@@]2(CCc3cc(NC(=O)NC)ccc32)C1=O (some centres unmarked) [compound 358]
IC50 (CWR22RV1 cells; [1]): 500 to 2000 nM

CNC(=O)Nc1ccc2c(c1)C1(CC1)CC21OC(=O)N(CC(=O)N2[C@@H](C)CC[C@H]2c2ccc(F)cc2)C1=O (stereo partly drawn) [Example 373, 1-(3′-(2-((2S,5S)-2-(4-fluorophenyl)-5-methylpyrrolidin-1-yl)-2-oxoethyl)-2′,4′-dioxo-dihydrospiro[cyclopropane-1,1′-indene-3′,5′-oxazolidin]-6′-yl)-3-methylurea]
IC50 (CWR22RV1 cells; [3]): > 2000 nM

CNC(=O)Nc1ccc2c(c1)CC[C@@]21OC(=O)N(CC(=O)N2Cc3cccnc3C2)C1=O [Example 304, (R)-1-(2′,4′-dioxo-3′-(2-oxo-2-(5H-pyrrolo[3,4-b]pyridin-6(7H)-yl)ethyl)-2,3-dihydrospiro[indene-1,5′-oxazolidine]-5-yl)-3-methylurea]
IC50 (CWR22RV1 cells; [1]): > 2000 nM

CNC(=O)Nc1ccc2c(c1)CC[C@@]21OC(=O)N(CC(=O)N2CCC[C@H]2c2ccccc2OC)C1=O [compound 339]
IC50 (CWR22RV1 cells; [1]): > 2000 nM

Cc1nnn(C)c1-c1ccc2c(c1)CC[C@@]21OC(=O)N(CC(=O)N2[C@@H](C)CC[C@H]2c2ccc(F)cc2)C1=O [Example 221, (R)-5-(1,4-dimethyl-1H-1,2,3-triazole-5-yl)-3′-(2-((2S,5S)-2-(4-fluorophenyl)-5-methylpyrrolidin-1-yl)-2-oxoethyl)-2,3-dihydrospiro[indene-1,5′-oxazolidine]-2′,4′-dione]
IC50 (CWR22RV1 cells; [1]): > 2000 nM

CNC(=O)Nc1ccc2c(c1)CC[C@]21OC(=O)N(CC(=O)N2CCC[C@@H]2c2ccccc2)C1=O [Example 309, 1-((S)-2′,4′-dioxo-3′-(2-oxo-2-((R)-2-phenylpyrrolidin-1-yl)ethyl)-2,3-dihydrospiro[indene-1,5′-oxazolidine]-5-yl)-3-methylurea]
IC50 (CWR22RV1 cells; [1]): 500 to 2000 nM

CNC(=O)Nc1ccc2c(c1)CC[C@@]21OC(=O)N(CC(=O)N2CCCC2c2ccccn2)C1=O (stereo partly drawn) [Example 332, 1-((1R)-2′,4′-dioxo-3′-(2-oxo-2-(2-(pyridin-2-yl)pyrrolidin-1-yl)ethyl)-2,3-dihydrospiro[indene-1,5′-oxazolidine]-5-yl)-3-methylurea]
IC50 (CWR22RV1 cells; [1]): > 2000 nM

1-(2′,4′-dioxo-3′-(2-oxo-2-((S)-2-phenylpyrrolidin-1-yl)ethyl)-2,3-dihydrospiro[cyclopropane-indene-1,5′-oxazolidine]-5-yl)-3-methylurea [Example 325]
IC50 (CWR22RV1 cells; [3]): > 2000 nM

CNC(=O)Nc1cc(F)c2c(c1)CC[C@]21OC(=O)N(CC(=O)N2[C@@H](C)CC[C@H]2c2cc(F)c(F)c(F)c2)C1=O [Example 386, 1-((S)-7-fluoro-3′-(2-((2S,5S)-2-methyl-5-(3,4,5-trifluorophenyl)pyrrolidin-1-yl)-2-oxoethyl)-2′,4′-dioxo-2,3-dihydrospiro[indene-1,5′-oxazolidine]-5-yl)-3-methylurea]
IC50 (CWR22RV1 cells; [1]): > 2000 nM

CNC(=O)Nc1ccc2c(c1)CC[C@@]21OC(=O)N(CC(=O)N2CCCC2c2ccccc2Br)C1=O (stereo partly drawn) [Example 336, 1-((1R)-3′-(2-(2-(2-bromophenyl)pyrrolidin-1-yl)-2-oxoethyl)-2′,4′-dioxo-2,3-dihydrospiro[indene-1,5′-oxazolidine]-5-yl)-3-methylurea]
IC50 (CWR22RV1 cells; [1]): > 2000 nM

CNC(=O)Nc1ccc2c(c1)CC[C@@]21OC(=O)N(CC(=O)N2CCCC[C@H]2c2ccccc2)C1=O [Example 5, 1-((R)-2′,4′-dioxo-3′-(2-oxo-2-((S)-2-phenylpiperidin-1-yl)ethyl)-2,3-dihydrospiro[indene-1,5-oxazolidine]-5-yl)-3-methylurea]
IC50 (CWR22RV1 cells; [1]): > 2000 nM

CNC(=O)Nc1ccc2c(c1)CCC21OC(=O)N(CC(=O)N2[C@@H](CO)CC[C@H]2c2ccc(F)cc2)C1=O (stereo partly drawn) [Example 361, 1-(3′-(2-((2S,5R)-2-(4-fluorophenyl)-5-(hydroxymethyl)pyrrolidin-1-yl)-2-oxoethyl)-2′,4′-dioxo-2,3-dihydrospiro[indene-1,5′-oxazolidine]-5-yl)-3-methylurea]
IC50 (CWR22RV1 cells; [1]): 500 to 2000 nM

Source: patent US20220087996A1, “Histone acetylase p300 inhibitor and use thereof” (HINOVA PHARMACEUTICALS INC., priority 2018, published 2022)
